Experimental findings from patent publication US4780281A, “Method for assay of peroxidase enzyme or reducing substrate activity” (Wayne State University, priority 1985, dated 1988) are described below.

Structures are written as SMILES.

Assay [1] has as its target T1, Horseradish peroxidase (HRP) (Armoracia rusticana, UniProt P00433).
T1 construct: purchased Sigma Chemical Corporation Type VI
T1 sequence (P00433 31-338 limits assumed): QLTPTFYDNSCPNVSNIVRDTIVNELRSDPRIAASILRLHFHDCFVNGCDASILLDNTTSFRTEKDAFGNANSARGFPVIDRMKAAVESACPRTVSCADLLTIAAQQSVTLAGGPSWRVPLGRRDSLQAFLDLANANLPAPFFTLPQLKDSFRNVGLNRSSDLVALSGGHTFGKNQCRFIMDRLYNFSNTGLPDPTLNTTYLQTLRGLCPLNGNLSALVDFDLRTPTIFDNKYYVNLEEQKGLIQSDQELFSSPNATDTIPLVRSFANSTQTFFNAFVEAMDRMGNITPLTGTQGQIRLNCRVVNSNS
Put plainly: Reducing substrate specificity assay (HRP-catalysed reduction of PPHP to PPA, HPLC). The settings on record: 60 nM HRP, 200 microM reducing substrate; for Index = concentration PPA/(concentration PPA+concentration PPHP): 100 microM PPHP, 0.1 M potassium citrate pH 5.5, 0.2 mM Tween-20, 25° C., 6 minutes, triplicate; for reducing substrate quality for HRP (FIG. 1): pH 5.5. It counts as biochemical. Here is the method: Incubations were performed in triplicate with a 25° C. shaker bath in 16×150 mm disposable glass test tubes. 60 nM HRP was incubated at 25° C. in 0.1 M potassium citrate buffer, […] containing 0.2 mM Tween 20, with 100 microM PPHP and 200 microM potential reducing substrate. The index value is defined as, Index=concentration PPA/(concentration PPA+concentration PPHP). Most reducing substrates were prepared daily as 8 mM stocks in either water, methanol, or methanol:water (1:1 v/v). DPBF was dissolved in acetone. Uric acid was dissolved in DMSO. Epinephrine required titration with dilute hydrochloric acid prior to dissolution in methanol. Indoleacetic acid, tryptophan, cysteine, and methionine were titrated with dilute potassium hydroxide prior to dissolution in methanol:water (1:1 v/v).
For the data in Table 1 hereinafter, reducing substrates (50 microliters of 8 mM stocks--see Table 1 for preparation) were transferred into 1.9 ml of 0.1 M potassium citrate buffer, pH 5.5, containing 0.2 mM Tween-20 and allowed to thermally equilibrate for 10 minutes. HRP (24 microl of a 5 microM stock) was added to each trial and preincubated for three minutes prior to the addition of PPHP (25 microl of 8 mM stock in methanol). Incubations were stopped at 6 minutes by pouring mixtures onto Baker SPE System columns (3 ml octyldecylsilyl, from J. T. Baker & Co.). The columns were prepared prior to use by passing 3×3 ml aliquots of water through the columns with the Baker SPE vacuum system. At the stop time, an individual trial was poured onto the column and aspirated to near dryness. Each individual trial was set aside until the reminder of the trials were treated in the same manner. After all incubation trials were partitioned onto the SPE columns, each individual incubation tube was washed with 2 ml of 0.2 mM Tween 20 in distilled water and poured onto the corresponding SPE column. This Tween 20/water wash was aspirated to near dryness with vacuum. Analytes were eluted into 12×76 mm disposable glass test tubes with 2×1 ml aliquots of methanol (HPLC grade, Fisher Scientific Co.). The sample collection rack for the Baker 10 SPE System was modified to accommodate these 12 mm diameter tubes. The SPE columns were aspirated dry at this point and discarded. An internal chromatographic standard of p-nitrobenzyl alcohol (25 microl of 8 mM stock solution in methanol) was added to each methanol eluent, mixed by vortexing, and then clarified by filtration through a 0.45 micron nylon Swinney type filter (Rainin Instrument Corp.). The filtered eluents were used directly for chromatographic analysis.
The Initial incubation conditions were 0.1 M potassium citrate buffer, pH 5.5, with 0.2 mM Tween 20, 200 microM reducing substrate, 60 nM HRP and […] PPHP (structure 1).
Quantitation was determined by adding an internal standard (p-nitrobenzyl alcohol: annotated as I.S. on chromatograms) and ratioing peak areas. Chromatograms are 40 microliters injections onto a 5 micron Zorbax octylsilyl reverse-phase column (DuPont Instrument Corp.) with an isocratic elution mobile of 56% v/v methanol in water at 2 ml per min. U.V. monitoring was with a fixed 254 nm detector (Varian 5000, Varian Instrument Corp.). Vertical numbers are associated with peak retention times in minutes (the integrator used was a Vista 402 System, Varian Instruments).
Analyte concentrations were calculated by an internal standard method of calculation. This required individual incubation chromatograms to be compared to a calibration chromatogram generated by chromatographing a 40 microliter sample aliquot of a solution of PPHP as described under calculations.

For a further assay, the target named is T2, Prostaglandin H Synthase (Ovis aries, UniProt P05979).
T2 sequence (P05979 25-600): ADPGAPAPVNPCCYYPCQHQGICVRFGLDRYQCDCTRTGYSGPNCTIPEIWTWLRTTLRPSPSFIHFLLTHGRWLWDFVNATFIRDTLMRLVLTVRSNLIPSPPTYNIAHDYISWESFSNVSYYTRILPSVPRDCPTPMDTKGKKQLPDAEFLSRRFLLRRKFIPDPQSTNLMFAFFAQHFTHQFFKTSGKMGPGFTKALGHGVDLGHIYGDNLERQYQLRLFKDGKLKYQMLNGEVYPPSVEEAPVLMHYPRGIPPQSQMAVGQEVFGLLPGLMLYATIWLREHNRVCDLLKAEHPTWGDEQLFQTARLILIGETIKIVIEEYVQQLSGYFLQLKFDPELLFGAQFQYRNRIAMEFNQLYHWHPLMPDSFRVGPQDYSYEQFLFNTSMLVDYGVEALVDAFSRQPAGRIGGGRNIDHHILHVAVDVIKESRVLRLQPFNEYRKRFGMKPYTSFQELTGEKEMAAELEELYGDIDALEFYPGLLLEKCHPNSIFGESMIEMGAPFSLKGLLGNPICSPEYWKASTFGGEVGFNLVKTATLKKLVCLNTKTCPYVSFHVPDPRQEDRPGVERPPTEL
Put plainly: Reducing substrate efficiency for PPHP reduction, conditions as for Table 1. Particulars: for Index of Efficiency of Reducing Substrates: Prostaglandin H synthase, under the conditions for Table 1. It counts as biochemical.

For `[I-].[K+]` [Iodide, potassium iodide], the “Index = concentration PPA/(concentration PPA+concentration PPHP)” value in assay [1] was found to be 0.97 ± 0.02.
Turning to `CC(C(=O)O)c1ccc(-c2ccccc2)c(F)c1` (stereo not drawn) [Flurbiprofen], on Prostaglandin H Synthase, the “Index of Efficiency of Reducing Substrates” value is recorded as “.12”.
Take `c1ccc(-c2oc(-c3ccccc3)c3ccccc23)cc1` [DPBF, 1,3-diphenylisobenzofuran]: in assay [1], the “Index = concentration PPA/(concentration PPA+concentration PPHP)” value worked out at 0.06 ± 0.01. For the same molecule, at Prostaglandin H Synthase, the “reducing substrate for PPHP reduction by prostaglandin H synthase” value (from here on “reducing substrate for PPHP reduction”) is “not reducing substrates”.
Consider `CSc1ccc(/C=C2/C(C)=C(CC(=O)O)c3cc(F)ccc32)cc1` [Sulindac Sulfide], for which the “Index of Efficiency of Reducing Substrates” value at Prostaglandin H Synthase is reported as “.96”.
With `CC(C)(C)c1cc(I)c(O)c(CN)c1` [MK-447], at Prostaglandin H Synthase, the “Index of Efficiency of Reducing Substrates” value was “.72”.
As to `NC(=O)C1=CN([C@@H]2O[C@H](COP(=O)(O)OP(=O)(O)OC[C@H]3O[C@@H](n4cnc5c(N)ncnc54)[C@H](O)[C@@H]3O)[C@@H](O)[C@H]2O)C=CC1` [NADH, reduced nicotinamide adenine dinucleotide], the “Index = concentration PPA/(concentration PPA+concentration PPHP)” value in assay [1] came out at 0.05 ± 0.00.
The same measure, in the same setting: then `O=c1[nH]c(=O)c2[nH]c(=O)[nH]c2[nH]1` [Uric Acid, uric acid], with 0.96 ± 0.00.
On to `CCCCC1C(=O)N(c2ccccc2)N(c2ccccc2)C1=O` [Phenylbutazone], for which the “Index of Efficiency of Reducing Substrates” value on Prostaglandin H Synthase is on record as “.23”.
For the molecule `Cc1cc(NC(=O)C2=C(O)c3ccccc3S(=O)(=O)N2C)no1` [Isoxicam], the “Index of Efficiency of Reducing Substrates” value at Prostaglandin H Synthase was “.25”.
In the case of `Cc1cc(C(C)(C)C)c(O)c(C(C)(C)C)c1` [BHT, butylated hydroxytoluene], the “Index = concentration PPA/(concentration PPA+concentration PPHP)” value in assay [1] is reported as 0.19 ± 0.03.
`CC1=NN(CCOc2ccc3ccccc3c2)C(=O)C1` [Nafazatrom]: at Prostaglandin H Synthase, the “Index of Efficiency of Reducing Substrates” value is reported as “.80”.
In the case of `O=C(O)CCCCC1CCSS1` (racemic) [Lipoic Acid, d,1-thiotic acid], the “Index = concentration PPA/(concentration PPA+concentration PPHP)” value in assay [1] is 0.06 ± 0.01.
Turning to `CSc1ccccc1` [Methylphenyl Sulfide], the “Index of Efficiency of Reducing Substrates” value at Prostaglandin H Synthase is listed as “.50”.
On to `O=C(O)Cc1ccccc1Nc1c(Cl)cccc1Cl` [Diclofenac], for which the “Index of Efficiency of Reducing Substrates” value on Prostaglandin H Synthase is “.50”.
Same read-out and setting: the same measure for `Cc1ccc(Cl)c(Nc2ccccc2C(=O)O)c1Cl` [Meclofenamate]: “.35”.
`N[C@@H](Cc1c[nH]c2ccccc12)C(=O)O` [Tryptophan, 1-tryptophan]: in assay [1], the “Index = concentration PPA/(concentration PPA+concentration PPHP)” value is reported as 0.13 ± 0.04 and the “reducing substrate quality for HRP (FIG. 1)” value is “poor”.
For `Oc1ccc(O)cc1` [Hydroquinone, hydroquinone], the “Index = concentration PPA/(concentration PPA+concentration PPHP)” value in assay [1] stood at 0.97 ± 0.01.
Same read-out and setting: then `O=C(O)Cc1c[nH]c2ccccc12` [Indoleacetic Acid, indole-3-acetic acid], with 0.14 ± 0.01.
With `CNC[C@H](O)c1ccc(O)c(O)c1` [Epinephrin, d,1-epinephrine], the “Index = concentration PPA/(concentration PPA+concentration PPHP)” value in assay [1] is on record as 0.39 ± 0.01. Further, the “Index of Efficiency of Reducing Substrates” value on Prostaglandin H Synthase is “.92”.
For the molecule `c1ccc2c(c1)cc1ccc3cccc4ccc2c1c34` [benzo[a]yrene], the “reducing substrate for PPHP reduction” value at Prostaglandin H Synthase is recorded as “not reducing substrates”.
On to `CCCCC1C(=O)NN(c2ccccc2)C1=O` (stereo not drawn) [Monophenylbutazone], for which the “Index of Efficiency of Reducing Substrates” value at Prostaglandin H Synthase is on record as “.23”.
Same read-out and setting: then `CCCCC1C(=O)N(c2ccccc2)N(c2ccc(O)cc2)C1=O` (stereo not drawn) [Oxyphenylbutazone], with “.71”.
As to `N[C@@H](CS)C(=O)O` [Cysteine, 1-cysteine], the “Index = concentration PPA/(concentration PPA+concentration PPHP)” value in assay [1] was 0.06 ± 0.01.
In the case of `Cc1c(CC(=O)O)c2cc(O)ccc2n1C(=O)c1ccc(Cl)cc1` [5-Hydroxy-indomethacin], the “Index of Efficiency of Reducing Substrates” value at Prostaglandin H Synthase is “.34”.
Regarding `O=C1O[C@H]([C@@H](O)CO)C(O)=C1O` [Ascorbic Acid, 1-ascorbic acid], the “Index = concentration PPA/(concentration PPA+concentration PPHP)” value in assay [1] is 0.50 ± 0.00.
Consider `NC(=O)C1=CN([C@@H]2O[C@H](COP(=O)(O)OP(=O)(O)OC[C@H]3O[C@@H](n4cnc5c(N)ncnc54)[C@H](OP(=O)(O)O)[C@@H]3O)[C@@H](O)[C@H]2O)C=CC1` [NADPH, reduced nicotinamide adenine dinucleotide phosphate], for which the “Index = concentration PPA/(concentration PPA+concentration PPHP)” value in assay [1] stood at 0.06 ± 0.01.
Still for that read-out and setting: the same measure for `Nc1ccccc1` [Aniline, aniline]: 0.97 ± 0.01.
Take `CSCC[C@H](N)C(=O)O` [Methionine, d,1-methionine]: the “Index = concentration PPA/(concentration PPA+concentration PPHP)” value in assay [1] is on record as 0.05 ± 0.01.
Turning to `COc1ccccc1O` [Guaniacol, guaiacol], in assay [1], the “Index = concentration PPA/(concentration PPA+concentration PPHP)” value amounted to 0.97 ± 0.01.
The same measure, in the same setting: the same measure for `CCN(CC)C(=S)S` [Diethyldithiocarbamate, diethyldithiocarbamic acid]: 0.72 ± 0.02.
For the molecule `O=C(O)c1ccccc1Nc1cccc(C(F)(F)F)c1` [Flufenamate], the “Index of Efficiency of Reducing Substrates” value on Prostaglandin H Synthase is on record as “.68”.
Take `OC1C=Cc2c(cc3ccc4cccc5ccc2c3c45)C1O` (stereo not drawn) [7,8-dihydroxy-7,8-dihydrobenzo[a]pyrene]: at Prostaglandin H Synthase, the “reducing substrate for PPHP reduction” value is “not reducing substrates”.
Consider `CC(C)Cc1ccc(C(C)C(=O)O)cc1` (stereo not drawn) [Ibuprofen], for which the “Index of Efficiency of Reducing Substrates” value on Prostaglandin H Synthase was “.12”.
On the same count and under the same terms, then `COc1ccc2c(c1)c(C(C)C(=O)O)c(C)n2Cc1ccc(SC)cc1` (stereo not drawn) [MK-410], with “.26”.
Turning to `N[C@@H](CCC(=O)N[C@@H](CS)C(=O)NCC(=O)O)C(=O)O` [Glutathione, reduced glutathione], in assay [1], the “Index = concentration PPA/(concentration PPA+concentration PPHP)” value is reported as 0.07 ± 0.01.
In the case of `CC(=O)Oc1ccccc1C(=O)O` [Aspirin], the “Index of Efficiency of Reducing Substrates” value at Prostaglandin H Synthase was “.04”.
On to `COc1ccc(O)c(C(C)(C)C)c1` [BHA, butylated hydroxyanisole], for which, in assay [1], the “Index = concentration PPA/(concentration PPA+concentration PPHP)” value came to 0.56 ± 0.01 and the “reducing substrate quality for HRP (FIG. 1)” value is “moderate”.
As for `O=C(O)c1ccccc1O` [Salicylic Acid], the “Index of Efficiency of Reducing Substrates” value on Prostaglandin H Synthase was “.06”.
